Source: article PMC9818021, “Targets, Mechanisms and Cytotoxicity of Half-Sandwich Ir(III) Complexes Are Modulated by Structural Modifications on the Benzazole Ancillary Ligand” (Cancers, 2022)

Columns and labels:
[1] = tested on: gene expression (stress response, apoptosis, cell cycle genes); test: Microarray differential gene expression (Affymetrix Human Gene 2.1 ST); format: cell-based; settings: vs. Control, 6 h after treatment
Method: DNA damage was measured using EpiQuik 8-OHdG DNA Damage Quantification Direct Kit (colorimetric) (Fischer, Waltham, MA, USA, P600396); The mitochondrial cytochrome C release was evaluated using the “Millipore’s FlowCellect Cytochrome C Kit (Millipore, FCCH100110)”. Lactate dehydrogenase activity release was measured in the culture medium using Cytotoxicity Detection Kit (Roche Diagnostic, Barcelona, Spain, 11 644 793 001). Protein synthesis was determined using Click-iT Plus O-propargyl-puromycin (OPP) Protein Synthesis Assay Kit (Invitrogen™, Waltham, MA, USA). Measurement of GSH/GSSG was determined with GSH/GSSG-Glo Assay (Promega, V6611). Measurements of OCR and ECAR with Seahorse XFp (Agilent Technologies) were determined using the XFp Cell Mito Stress Test Kit (103010-100) and XFp Glycolysis Stress Test Kit (103017-100). ATP measurement was determined with Cell Titer-Glo Luminescent Cell Viability Assay (Promega, Madison, WI, USA, G7570). Determination of DNA damage using phosphorylated H2AX measurement were performed as previously described. Cardiolipin oxidation using the fluorophore Nonyl Acridine Orange (NAO, Thermo Scientific, A1372) was performed as described. Cell viability was determined by Hoechst inclusion and Propidium iodide (PI) exclusion by standard protocols. TEM analysis were performed as described. Cell cycle analysis by flow cytometry and microarrays analysis were performed as described. Arrays data have been deposited in the ArrayExpress database at EMBL-EBI (www.ebi.ac.uk/arrayexpress) under accession number E-MTAB-860 (10 November 2022)
Studies of the effect of 1[C,NH] on gene expression were performed and assessed 6 h after treatment, in a middle phase, when most cells were still alive (see S.I. Movie S2) but already with characteristic morphological features of apoptosis (Movie S1). Gene expression profiles of cells was determined by Affymetrix Human Gene 2.1 ST Array Plate in three independent experiments. In order to confirm the microarray data, we selected some genes involved in several key pathways: stress response, apoptosis and cell cycle to validate the changes in the expression by RT-qPCR. Results indicated a good correlation between microarray analysis and RT-qPCR. (Table S11). […] Note that not all genes are annotated with these databases. However, the negative regulation of metabolic process and negative regulation of macromolecule metabolic process are highly represented, and ~38% (84) of all genes could be classified in this way. […] The effect of 1[C,NH] on cell cycle progression was further assessed by flow cytometry. […] In summary, mRNA expression analysis is in good agreement with the elevation of ROS, oxidative stress response, cell cycle arrest and induction of apoptosis.

A549 cells [2] = test: Viability of A549 proliferant vs quiescent cells; format: cell-based, human; settings: 24 h
Method: Cytotoxicity. MTT Assay and IC50 estimation. The cytotoxicity of 1[C,NH-Cl], 2[C,NMe-Cl], 3[N,NH-Cl]Cl, 4[N,NMe-Cl]Cl, 5[CNH2,NH-Cl]Cl, 6[CNH2,S-Cl]Cl, 7[CO,NH-Cl] and 8[CO,S-Cl] in A2780, A2780cis, SW480 and A549 carcinoma cells was evaluated by the MTT colorimetric assay. Cells were seeded in 96-well plates at 5000 cells per well and incubated at 37 °C, 5% CO2. […] Final DMSO concentration was kept below 0.7% in wells. For a negative control, one sequence of cells was left untreated and for vehicle control, cells treated with DMSO were included. For cell viability experiments preincubating with NAC (N-Acetyl-L-Cysteine), the cells were pre-treated with NAC, 10 mM for 2 h before the incubation with complex 1[C,NH-Cl] for 24 h. Then, the medium was removed from the wells, and 100 µL MTT (5 mg/mL) was added. After an incubation time of 4 h, 100 μL of solubilizing detergent solution (SDS, 10% in HCL 0.01 M) was added and kept in the incubator overnight. Cell growth inhibition was detected by measuring the absorbance of each well at 595 nm using a BioTek Cytation5 microplate reader. Each test was repeated in quadruplicate in three independent experiments for each cell line. The percentage of survival cells was calculated using absorbance measurements compared with control and the IC50 estimation using Graph Pad Prism version 6.01.

A549 cells [3] = test: Protein synthesis (Click-iT OPP); format: cell-based, human; settings: 16 µM, 6 h
Method: (§1) DNA damage was measured using EpiQuik 8-OHdG DNA Damage Quantification Direct Kit (colorimetric) (Fischer, Waltham, MA, USA, P600396); The mitochondrial cytochrome C release was evaluated using the “Millipore’s FlowCellect Cytochrome C Kit (Millipore, FCCH100110)”. Lactate dehydrogenase activity release was measured in the culture medium using Cytotoxicity Detection Kit (Roche Diagnostic, Barcelona, Spain, 11 644 793 001). Protein synthesis was determined using Click-iT Plus O-propargyl-puromycin (OPP) Protein Synthesis Assay Kit (Invitrogen™, Waltham, MA, USA). Measurement of GSH/GSSG was determined with GSH/GSSG-Glo Assay (Promega, V6611). Measurements of OCR and ECAR with Seahorse XFp (Agilent Technologies) were determined using the XFp Cell Mito Stress Test Kit (103010-100) and XFp Glycolysis Stress Test Kit (103017-100). ATP measurement was determined with Cell Titer-Glo Luminescent Cell Viability Assay (Promega, Madison, WI, USA, G7570). Determination of DNA damage using phosphorylated H2AX measurement were performed as previously described. Cardiolipin oxidation using the fluorophore Nonyl Acridine Orange (NAO, Thermo Scientific, A1372) was performed as described. Cell viability was determined by Hoechst inclusion and Propidium iodide (PI) exclusion by standard protocols. TEM analysis were performed as described. […]

[4] = tested on: gene expression (stress response, apoptosis, cell cycle genes); test: RT-qPCR differential gene expression; format: cell-based, human; settings: vs. Control, 6 h after treatment
Method: Specific assays with 1[C,NH] complex were performed according to manufacturer’s instructions using the following reagents from Molecular Probes (Thermo Fisher Scientific): Measurements of ROS: Dihydroethidium (DHE, D11347) and 2′, 7′-dichlorodihydrofluorescein diacetate (H2DCFDA, D399); detection of caspases 3/7: CellEvent Caspase-3/7 Green Detection Reagent (C10423); Cell viability: Live/Dead Cell Imaging Kit (R37601); Analysis of cytosolic calcium concentration: Fluo3/AM (F23915); Analysis of MMP: Tetramethylrhodamine methyl ester perchlorate (TMRM, T668). RT-qPCR’s assays were performed with the following primers/probes from Thermo Fisher Scientific: DCP1A (Hs00218198-m1), FOSB (Hs00171851-m1), EGR1(Hs0015928-m1), ATF3 (Hs00231069-m1), DDIT3 (Hs00358796-g1), PP1R15A (Hs00169585-m1), CHAC1(Hs00225520-m1), MIR9-1 (Hs04231512-s1), ATP1B2 (Hs00155922-m1), BBC3 (Hs00248075-m1), BCL2L11 (Hs00798019-s1), PMAIP1 (Hs00560402-m1), SKP2 (Hs01021864-m1) and HIST1H1B (Hs00271207-s1). RT-qPCR experiments were performed as described.

A549 cells [5] = test: ATP levels (Cell Titer-Glo); format: cell-based, human; settings: 16 µM, 8 h incubation
Method: as §1

With `Cc1c(C)c(C)[c-](C)c1C.[Cl][Ir]1[c]2ccccc2-c2[nH]c3ccccc3[n+]21` [1[C,NH], [(η^5-Cp*)IrCl(κ^2-N,C-pbim)]] the “ATF3 Microarray (Fold Change (linear))” value [1] was 37, the “ATP1B2 Microarray (Fold Change (linear))” value [1] was 34.8 and the “BBC3 Microarray (Fold Change (linear))” value [1] was 3.3. The “BCL2L11 Microarray (Fold Change (linear))” value [1] was 5.1, the “CHAC1 Microarray (Fold Change (linear))” value [1] was 3 and the “DDIT3 Microarray (Fold Change (linear))” value [1] was 23. For the same compound, the “EGR1 Microarray (Fold Change (linear))” value [1] was greater than 100, the “FOSB Microarray (Fold Change (linear))” value [1] was greater than 100 and the “HIST1H1B Microarray (Fold Change (linear))” value [1] was -6.6. The “MIR9-1 Microarray (Fold Change (linear))” value [1] was 26.8, the “PMAIP1 Microarray (Fold Change (linear))” value [1] was 7.1 and the “PPP1R15A Microarray (Fold Change (linear))” value [1] was 11. For the same compound, the “SKP2 Microarray (Fold Change (linear))” value [1] was -4.7, the IC50 (A549 cells [2]; A549 non-proliferating (quiescent) condition) was 17 µM and the IC50 (A549 cells [2]; A549 proliferating condition) was 9.5 µM. For the same compound, the “Inhibition of total protein synthesis” value (A549 cells [3]) was “around 60%”, the “ATF3 RT-qPCR (2-ΔΔCt)” value [4] was greater than 100 and the “ATP1B2 RT-qPCR (2-ΔΔCt)” value [4] was 19.5. For the same compound, the “BBC3 RT-qPCR (2-ΔΔCt)” value [4] was 3.7, the “BCL2L11 RT-qPCR (2-ΔΔCt)” value [4] was 3.6 and the “CHAC1 RT-qPCR (2-ΔΔCt)” value [4] was 3.5. For the same compound, the “DDIT3 RT-qPCR (2-ΔΔCt)” value [4] was 7.8, the “EGR1 RT-qPCR (2-ΔΔCt)” value [4] was greater than 100 and the “FOSB RT-qPCR (2-ΔΔCt)” value [4] was greater than 100. The “HIST1H1B RT-qPCR (2-ΔΔCt)” value [4] was 0.1, the “MIR9-1 RT-qPCR (2-ΔΔCt)” value [4] was greater than 100 and the “PMAIP1 RT-qPCR (2-ΔΔCt)” value [4] was 3.4. The “PPP1R15A RT-qPCR (2-ΔΔCt)” value [4] was 14.8, the “SKP2 RT-qPCR (2-ΔΔCt)” value [4] was 0.3 and the “Decrease on ATP levels” value (A549 cells [5]) was “around 35%”.
